Data set [1] has as its system E. coli 35218R. Put plainly: microbe, parasite or virus in culture. The conditions noted are these: Escherichia coli.
Another data set concerns E. coli ATCC 35218. The format is cell-based, Escherichia coli. The conditions noted are these: 30-μg cefoxitin disc.
In data set [2] the test system is E. coli 35218R. The format is cell-based, Escherichia coli. The following applies: 30-μg cefoxitin disc.
For data set [3] the following is noted: mouse, in vivo; cited from earlier work.
For data set [4] the following is noted: mouse, in vivo.

As to `C[C@H]1[C@H](NC(=O)/C(=N\OC(C)(C)C(=O)O)c2csc(N)n2)C(=O)N1S(=O)(=O)O` [Aztreonam], the MIC against E. coli 35218R [1] was not above 1 µg/mL. On the same count and under the same terms, with `CO/N=C(\C(=O)N[C@@H]1C(=O)N2C(C(=O)[O-])=C(C[N+]3(C)CCCC3)CS[C@H]12)c1csc(N)n1` [Cefepime] the figure was not above 1 µg/mL. Take `CO[C@@]1(NC(=O)Cc2cccs2)C(=O)N2C(C(=O)O)=C(COC(N)=O)CS[C@@H]21` [Cefoxitin]: the entries for the “inhibition zone (mean ± SD)” value with E. coli ATCC 35218 and in the data set on E. coli 35218R [2] were 27.2 ± 0.1 mm and 27.9 ± 0.1 mm, respectively. In the data set with E. coli 35218R [1], this compound gave an MIC not above 4 µg/mL. In the data set on E. coli 35218R [1], `CC(C)(O/N=C(\C(=O)N[C@@H]1C(=O)N2C(C(=O)[O-])=C(C[n+]3ccccc3)CS[C@H]12)c1csc(N)n1)C(=O)O` [Ceftazidime] came in with an MIC not above 1 µg/mL. The compound `CO/N=C(\C(=O)N[C@@H]1C(=O)N2C(C(=O)O)=C(CSc3nc(=O)c(=O)[nH]n3C)CS[C@H]12)c1csc(N)n1` [Ceftriaxone] came in with an MIC against E. coli 35218R [1] not above 1 µg/mL. In turn, `C[C@@H](O)[C@H]1C(=O)N2C(C(=O)O)=C(S[C@@H]3CN[C@H](C(=O)Nc4cccc(C(=O)O)c4)C3)[C@H](C)[C@H]12` [Ertapenem] registered an MIC with E. coli 35218R [1] not above 0.5 µg/mL. The same measure, in the same setting: with `C[C@@H](O)[C@H]1C(=O)N2C(C(=O)O)=C(SCCN=CN)C[C@H]12` [Imipenem] the figure was not above 1 µg/mL. On the same count and under the same terms, the value for `C[C@@H](O)[C@H]1C(=O)N2C(C(=O)O)=C(S[C@@H]3CN[C@H](C(=O)N(C)C)C3)[C@H](C)[C@H]12` [Meropenem] was not above 0.25 µg/mL. In the case of `CN[C@H](CC(C)C)C(=O)N[C@H]1C(=O)N[C@@H](CC(N)=O)C(=O)N[C@H]2C(=O)N[C@H]3C(=O)N[C@H](C(=O)N[C@H](C(=O)O)c4cc(O)cc(O)c4-c4cc3ccc4O)[C@H](O)c3ccc(c(Cl)c3)Oc3cc2cc(c3O[C@@H]2O[C@H](CO)[C@@H](O)[C@H](O)[C@H]2O[C@H]2C[C@](C)(N)[C@H](O)[C@H](C)O2)Oc2ccc(cc2Cl)[C@H]1O` [vancomycin], the elimination half-life in data set [3] is approximately 30 min.

Turning to piperacillin-tazobactam [Farmalogica], in data set [4], the “bioequivalence test versus innovator” value is reported as “passed”. On to piperacillin-tazobactam [Procaps], for which the “bioequivalence test versus innovator” value in data set [4] was “passed”.

The values are drawn from article PMC4871539 (PLoS ONE, 2016).
